US9879043B1, “Synthesis of non-natural cofactor analogs of S-adenosyl-L-methionine using methionine adenosyltransferase” (University of Kentucky Research Foundation, priority 2013, dated 2018)

Tests used:
Assay type in all cases: biochemical
[1] = target: T1, Sulfolobus solfataricus MAT (sMAT) (Saccharolobus solfataricus, UniProt Q980S9); settings: ADP in place of ATP, 65° C. for 4 hr, standard assay conditions
T1 sequence (Q980S9 1-404): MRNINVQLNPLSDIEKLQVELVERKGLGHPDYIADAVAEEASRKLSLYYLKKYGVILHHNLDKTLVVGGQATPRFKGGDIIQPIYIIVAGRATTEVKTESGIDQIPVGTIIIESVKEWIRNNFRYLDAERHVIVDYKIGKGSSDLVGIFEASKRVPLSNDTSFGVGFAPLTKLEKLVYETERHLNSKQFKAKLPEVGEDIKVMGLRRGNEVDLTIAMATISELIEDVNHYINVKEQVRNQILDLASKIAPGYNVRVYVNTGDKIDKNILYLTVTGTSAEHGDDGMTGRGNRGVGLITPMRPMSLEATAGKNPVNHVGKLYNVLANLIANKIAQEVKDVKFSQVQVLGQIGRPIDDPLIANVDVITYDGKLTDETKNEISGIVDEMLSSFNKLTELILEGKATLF

[2] = target: T2, Methanocaldococcus jannaschii MAT (mMAT) (Methanocaldococcus jannaschii, UniProt Q58605); settings: 2 mM Met analog, 1 mM ATP, 5 μM MAT, pH 8, 4 h, 65° C.; average of two assays
T2 sequence (Q58605 1-406): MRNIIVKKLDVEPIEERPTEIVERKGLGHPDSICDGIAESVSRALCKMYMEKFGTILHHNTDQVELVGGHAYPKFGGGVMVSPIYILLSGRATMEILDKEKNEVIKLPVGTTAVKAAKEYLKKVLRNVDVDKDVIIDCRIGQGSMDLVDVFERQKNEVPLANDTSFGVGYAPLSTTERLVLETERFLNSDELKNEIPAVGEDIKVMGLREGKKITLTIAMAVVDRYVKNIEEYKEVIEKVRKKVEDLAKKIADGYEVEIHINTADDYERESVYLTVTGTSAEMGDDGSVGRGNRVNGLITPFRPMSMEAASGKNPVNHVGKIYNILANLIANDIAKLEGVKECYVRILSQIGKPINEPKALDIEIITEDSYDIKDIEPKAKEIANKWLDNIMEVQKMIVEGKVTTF
Protocol: (§1) Standard uniform assay conditions (2 mM Met analog, 1 mM ATP, 5 μM MAT, 25 mM Tris, 5 mM MgCl2, 50 mM KCl, pH 8, 4 h) were adopted to facilitate this broad assessment. For the thermophilic counterpart (mMAT), reactions were conducted at 65° C., while all other reactions were incubated at 37° C. Production of SAM analogs was determined by an RP-HPLC end point assay to afford complete analysis of the desired SAM analog and/or any corresponding degradation products known to directly derive from the desired SAM analog intermediate.
(§2) To monitor MAT reactions, analytical RP HPLC employed a Luna C18 column (5 μm, 4.6 mm×250 mm; Phenomenex, Torrance, Calif., USA) [gradient of 10% B to 40% B over 15 min, 40% B to 75% B over 5 min (A=10 mM NaH2PO4, 5 mM octane sulfonic acid, pH was adjusted to 3.5 using phosphoric acid; B=acetonitrile) flow rate=1 mL min^−1; A254].
(§3) The sMAT and mMAT reactions were conducted at 65° C. while hMATs and eMAT were incubated at 37° C. Reactions were quenched by adding an equal volume of methanol followed by centrifugation (10,000×g for 15 min) to remove the precipitated protein and product formation for each reaction was subsequently analyzed by RP-HPLC using Method D (FIG. 15, first column). For each reaction, percent yield was based upon the integration of species at 254 nm and calculated by dividing the integrated area of product and/or decomposed product by the sum of integrated area of product and/or decomposed product and the remaining substrate. The assays were repeated twice under identical conditions, and Table 2 (and FIG. 5) represents an average value of two assays. The inclusion of adenine and 5′-R-thio-5′-adenosine in these calculations is based upon the established SAM and ATP chemical decomposition pathways which indicate adenine and 5′-R-thio-5′-adenosine to only derive from SAM (not ATP). All putative products were subsequently confirmed by high resolution electrospray ionization (ESI) mass spectra with positive (+) and/or negative (−) mode.

[3] = target: human MAT I catalytic subunit alpha (hMAT1A) (Homo sapiens, UniProt Q00266); assay: MAT assay, turnover of S/Se-Met analogs to S(Se)AM analogs (RP-HPLC end point); settings: 2 mM Met analog, 1 mM ATP, 5 μM MAT, pH 8, 4 h, 37° C.; average of two assays
Protocol: as §1, §2, §3

[4] = target: human MAT II catalytic alpha and regulatory beta subunit (hMAT2) (Homo sapiens, UniProt P31153); assay: as above; settings: 2 mM Met analog, 1 mM ATP, 5 μM MAT, pH 8, 4 h, 37° C.; average of two assays
Protocol: as §1, §2, §3

[5] = target: human MAT II catalytic alpha subunit alone (hMAT2A) (Homo sapiens, UniProt P31153); assay: as above; settings: 2 mM Met analog, 1 mM ATP, 5 μM MAT, pH 8, 4 h, 37° C.; average of two assays
Protocol: as §1, §2, §3

[6] = target: T1, Sulfolobus solfataricus MAT (sMAT); settings: 2 mM analog, 1 mM ATP, 5 μM sMAT, pH 8.0, 4 h at 65° C.; average of two assays
Protocol: In-vitro sMAT assay: In vitro sMAT reactions were conducted in a volume of 50 μl with 2 mM S/Se-alkylated analog, 1 mM ATP and 5 μM purified sMAT in 25 mM Tris buffer pH 8.0, 5 mM MgCl2, 50 mM KCl for 4 h at 65° C. Reactions were quenched by adding an equal volume of methanol followed by centrifugation (10,000×g for 15 min) to remove the precipitated protein and product formation for each reaction was subsequently analyzed by reverse phase HPLC (RP-HPLC) using method described below. For each reaction, percent yield was based upon the integration of species at 254 nm and calculated by dividing the integrated area of product and/or decomposed product by the sum of integrated area of product and/or decomposed product and the remaining substrate. The assays were repeated twice under identical conditions, and Table 4 (and FIG. 17) represents an average value of two assays. The inclusion of adenine and 5′-R-thio-5′-adenosine in these calculations is based upon the established SAM and ATP chemical decomposition pathways which indicate adenine and 5′-R-thio-5′-adenosine to only derive from SAM (not ATP). All putative products were subsequently confirmed by high resolution electrospray ionization (ESI) mass spectra with positive (+) and/or negative (−) mode.
RP-HPLC method: Reactions were quenched by the addition of equal volume of methanol followed by centrifugation at 10,000 g for 15 min to remove precipitated protein before applying on an analytical Varian ProStar HPLC [Luna C18 column, 5 μm, 4.6 mm×250 mm; Phenomenex, Torrance, Calif., USA; gradient of 10% B to 40% B over 15 min, 40% B to 75% B over 5 min (A=10 mM NaH2PO4, 5 mM octane sulfonic acid, pH was adjusted to 3.5 using phosphoric acid; B=acetonitrile) flow rate=1 mL min^−1; A254].

[7] = target: Escherichia coli MAT (eMAT) (Escherichia coli, UniProt P0A817); assay: MAT assay, turnover of S/Se-Met analogs to S(Se)AM analogs (RP-HPLC end point); settings: 2 mM Met analog, 1 mM ATP, 5 μM MAT, pH 8, 4 h, 37° C.; average of two assays
Protocol: as §1, with “intermediate. Putative SAM analog and SAM-derived degradative product formation was subsequently confirmed via high-resolution mass spectrometry (HRMS) analysis for all positive reactions (see Table 2).” for “intermediate.”
as §2
as §3, with “In vitro MAT reactions were conducted in a volume of 50 μl with 2 mM S/Se-alkylated analog (compounds 2-30), 1 mM ATP and 5 μM purified MAT in 25 mM Tris buffer pH 8.0, 5 mM MgCl2, 50 mM KCl for 4 h. The sMAT” for “The sMAT”

Compound: Nc1ncnc2c1ncn2[C@@H]1O[C@H](COP(=O)(O)OP(=O)(O)O)[C@@H](O)[C@H]1O [ADP]
- product formation from ADP and methionine [1]: no detectable product

Compound: [N-]=[N+]=NC/C=C/CSCC[C@H](N)C(=O)O [compound 23, (2S)-2-amino-4-{[(2E)-4-azidobut-2-en-1-yl]sulfanyl}butanoic acid]
- Percentage Turn-over mMAT [2]: 32%
- Percentage Turn-over hMAT1A [3]: 2%
- Percentage Turn-over hMAT2 [4]: 12%
- Percentage Turn-over hMAT2A [5]: 5%
- Percentage Turn-Over (sMAT) [6]: 28%
- Percentage Turn-over eMAT [7]: 0%
